# Test results published in patent publication US12303592B2, “Formulations for parenteral delivery of compounds and uses thereof” (Wyeth, LLC, priority 2006, dated 2025).
# Assay: Stopper compatibility evaluation (Table 14), HPLC Method A; as to RRT 0.38: key: BRL=below recordable limit; as to RRT 0.49: key: BRL=below recordable limit; as to RRT 0.67: key: BRL=below recordable limit; as to RRT 0.79: key: BRL=below recordable limit; as to RRT 0.89: key: BRL=below recordable limit; as to RRT 1.17: key: BRL=below recordable limit; as to RRT 1.55: key: BRL=below recordable limit; as to RRT 1.89: key: BRL=below recordable limit; as to RRT 1.96: key: BRL=below recordable limit; as to RRT 2.01: key: BRL=below recordable limit; as to RRT 2.26: key: BRL=below recordable limit
# Type: physicochemical
# Set-up: RRT 1.77 / Total / RRT 1.66: unit not given here
# Excerpt: Identical preparations prepared as described in Example 4 were stored in parallel in vials having either a 13 mm WPS S2-F451 4432/50 Gray B2-40 Westar RS stopper (West Pharmaceutical Services) or a 13 mm S2-F451 RS D 777-1 RB2 40 stopper (Daikyo Seiko, Ltd) under various conditions. Each of the stoppers has a FluoroTec® fluorocarbon film; the Westar 4432/50 stopper is chlorobutyl rubber, while the RB2-40 RS D 777-1 stopper is bromobutyl rubber. The presence of accumulation of degradant was assessed for each of the configurations (HPLC Method A).
# [1] = Control at Room Temperature, 1 hours
# [2] = Control at Room Temperature, 4 hours
# [3] = RS-D 777-1 B2 40 from Daikyo Seiko Ltd. at 40° C., 1 hours
# [4] = RS-D 777-1 B2 40 from Daikyo Seiko Ltd. at 40° C., 4 hours
# [5] = RS-D 777-1 B2 40 from Daikyo Seiko Ltd. at Room Temperature, 1 hours
# [6] = RS-D 777-1 B2 40 from Daikyo Seiko Ltd. at Room Temperature, 4 hours
# [7] = Westar RS stopper (West Pharmaceutical Services) at 40° C., 1 hours
# [8] = Westar RS stopper (West Pharmaceutical Services) at 40° C., 4 hours
# [9] = Westar RS stopper (West Pharmaceutical Services) at Room Temperature, 1 hours
# [10] = Westar RS stopper (West Pharmaceutical Services) at Room Temperature, 4 hours
smiles,measurement,setting,value
"C[N+]1(CC2CC2)CC[C@]23c4c5ccc(O)c4O[C@H]2C(=O)CC[C@@]3(O)[C@H]1C5 (some centres unmarked) [MNTX, methylnaltrexone bromide]",Initial,"Control at 40° C., 1 hours",20.3 mg
same,RRT 0.38,"Control at 40° C., 1 hours",BRL
same,RRT 0.49,"Control at 40° C., 1 hours",BRL
same,RRT 0.67,"Control at 40° C., 1 hours",BRL
same,RRT 0.79,"Control at 40° C., 1 hours",BRL
same,RRT 0.89,"Control at 40° C., 1 hours",BRL
same,RRT 1.17,"Control at 40° C., 1 hours",BRL
same,RRT 1.55,"Control at 40° C., 1 hours",BRL
same,RRT 1.66,"Control at 40° C., 1 hours",0.12
same,RRT 1.77,"Control at 40° C., 1 hours",BRL
same,RRT 1.89,"Control at 40° C., 1 hours",BRL
same,RRT 1.96,"Control at 40° C., 1 hours",BRL
same,RRT 2.01,"Control at 40° C., 1 hours",BRL
same,RRT 2.26,"Control at 40° C., 1 hours",BRL
same,Total,"Control at 40° C., 1 hours",0.12
same,Initial,"Control at 40° C., 4 hours",20.3 mg
same,RRT 0.38,"Control at 40° C., 4 hours",BRL
same,RRT 0.49,"Control at 40° C., 4 hours",BRL
same,RRT 0.67,"Control at 40° C., 4 hours",BRL
same,RRT 0.79,"Control at 40° C., 4 hours",BRL
same,RRT 0.89,"Control at 40° C., 4 hours",BRL
same,RRT 1.17,"Control at 40° C., 4 hours",BRL
same,RRT 1.55,"Control at 40° C., 4 hours",BRL
same,RRT 1.66,"Control at 40° C., 4 hours",0.12
same,RRT 1.77,"Control at 40° C., 4 hours",BRL
same,RRT 1.89,"Control at 40° C., 4 hours",BRL
same,RRT 1.96,"Control at 40° C., 4 hours",BRL
same,RRT 2.01,"Control at 40° C., 4 hours",BRL
same,RRT 2.26,"Control at 40° C., 4 hours",BRL
same,Total,"Control at 40° C., 4 hours",0.12
same,Initial,[1],20.1 mg
same,RRT 0.38,[1],BRL
same,RRT 0.49,[1],BRL
same,RRT 0.67,[1],BRL
same,RRT 0.79,[1],BRL
same,RRT 0.89,[1],BRL
same,RRT 1.17,[1],BRL
same,RRT 1.55,[1],BRL
same,RRT 1.66,[1],0.12
same,RRT 1.77,[1],BRL
same,RRT 1.89,[1],BRL
same,RRT 1.96,[1],BRL
same,RRT 2.01,[1],BRL
same,RRT 2.26,[1],BRL
same,Total,[1],0.12
same,Initial,[2],20.0 mg
same,RRT 0.38,[2],BRL
same,RRT 0.49,[2],BRL
same,RRT 0.67,[2],BRL
same,RRT 0.79,[2],BRL
same,RRT 0.89,[2],BRL
same,RRT 1.17,[2],BRL
same,RRT 1.55,[2],BRL
same,RRT 1.66,[2],0.12
same,RRT 1.77,[2],BRL
same,RRT 1.89,[2],BRL
same,RRT 1.96,[2],BRL
same,RRT 2.01,[2],BRL
same,RRT 2.26,[2],BRL
same,Total,[2],0.12
same,Initial,Initial,20.2 mg
same,RRT 0.38,Initial,BRL
same,RRT 0.49,Initial,BRL
same,RRT 0.67,Initial,BRL
same,RRT 0.79,Initial,BRL
same,RRT 0.89,Initial,BRL
same,RRT 1.17,Initial,BRL
same,RRT 1.55,Initial,BRL
same,RRT 1.66,Initial,0.12
same,RRT 1.77,Initial,BRL
same,RRT 1.89,Initial,BRL
same,RRT 1.96,Initial,BRL
same,RRT 2.01,Initial,BRL
same,RRT 2.26,Initial,BRL
same,Total,Initial,0.12
same,Initial,[3],20.1 mg
same,RRT 0.38,[3],BRL
same,RRT 0.49,[3],BRL
same,RRT 0.67,[3],BRL
same,RRT 0.79,[3],BRL
same,RRT 0.89,[3],BRL
same,RRT 1.17,[3],BRL
same,RRT 1.55,[3],BRL
same,RRT 1.66,[3],0.12
same,RRT 1.77,[3],0.05
same,RRT 1.89,[3],BRL
same,RRT 1.96,[3],BRL
same,RRT 2.01,[3],BRL
same,RRT 2.26,[3],BRL
same,Total,[3],0.17
same,RRT 0.38,[4],BRL
same,RRT 0.49,[4],BRL
same,RRT 0.67,[4],BRL
same,RRT 0.79,[4],BRL
same,RRT 0.89,[4],BRL
same,RRT 1.17,[4],BRL
same,RRT 1.55,[4],BRL
same,RRT 1.66,[4],0.12
same,RRT 1.77,[4],0.05
same,RRT 1.89,[4],BRL
same,RRT 1.96,[4],BRL
same,RRT 2.01,[4],BRL
same,RRT 2.26,[4],BRL
same,Total,[4],0.17
same,Initial,[5],20.3 mg
same,RRT 0.38,[5],BRL
same,RRT 0.49,[5],BRL
same,RRT 0.67,[5],BRL
same,RRT 0.79,[5],BRL
same,RRT 0.89,[5],BRL
same,RRT 1.17,[5],BRL
same,RRT 1.55,[5],BRL
same,RRT 1.66,[5],0.12
same,RRT 1.77,[5],BRL
same,RRT 1.89,[5],BRL
same,RRT 1.96,[5],BRL
same,RRT 2.01,[5],BRL
same,RRT 2.26,[5],BRL
same,Total,[5],0.12
same,Initial,[6],20.2 mg
same,RRT 0.38,[6],BRL
same,RRT 0.49,[6],BRL
same,RRT 0.67,[6],BRL
same,RRT 0.79,[6],BRL
same,RRT 0.89,[6],BRL
same,RRT 1.17,[6],BRL
same,RRT 1.55,[6],BRL
same,RRT 1.66,[6],0.12
same,RRT 1.77,[6],BRL
same,RRT 1.89,[6],BRL
same,RRT 1.96,[6],BRL
same,RRT 2.01,[6],BRL
same,RRT 2.26,[6],BRL
same,Total,[6],0.12
same,Initial,[7],20.1 mg
same,RRT 0.38,[7],BRL
same,RRT 0.49,[7],BRL
same,RRT 0.67,[7],BRL
same,RRT 0.79,[7],BRL
same,RRT 0.89,[7],BRL
same,RRT 1.17,[7],BRL
same,RRT 1.55,[7],BRL
same,RRT 1.66,[7],0.06
same,RRT 1.77,[7],BRL
same,RRT 1.89,[7],BRL
same,RRT 1.96,[7],BRL
same,RRT 2.01,[7],BRL
same,RRT 2.26,[7],BRL
same,Total,[7],0.06
same,Initial,[8],20.2 mg
same,RRT 0.38,[8],BRL
same,RRT 0.49,[8],BRL
same,RRT 0.67,[8],BRL
same,RRT 0.79,[8],BRL
same,RRT 0.89,[8],BRL
same,RRT 1.17,[8],BRL
same,RRT 1.55,[8],BRL
same,RRT 1.66,[8],0.06
same,RRT 1.77,[8],0.05
same,RRT 1.89,[8],BRL
same,RRT 1.96,[8],BRL
same,RRT 2.01,[8],BRL
same,RRT 2.26,[8],BRL
same,Total,[8],0.06
same,Initial,[9],20.3 mg
same,RRT 0.38,[9],BRL
same,RRT 0.49,[9],BRL
same,RRT 0.67,[9],BRL
same,RRT 0.79,[9],BRL
same,RRT 0.89,[9],BRL
same,RRT 1.17,[9],BRL
same,RRT 1.55,[9],BRL
same,RRT 1.66,[9],0.06
same,RRT 1.77,[9],BRL
same,RRT 1.89,[9],BRL
same,RRT 1.96,[9],BRL
same,RRT 2.01,[9],BRL
same,RRT 2.26,[9],BRL
same,Total,[9],0.06
same,Initial,[10],20.1 mg
same,RRT 0.38,[10],BRL
same,RRT 0.49,[10],BRL
same,RRT 0.67,[10],BRL
same,RRT 0.79,[10],BRL
same,RRT 0.89,[10],BRL
same,RRT 1.17,[10],BRL
same,RRT 1.55,[10],BRL
same,RRT 1.66,[10],0.06
same,RRT 1.77,[10],BRL
same,RRT 1.89,[10],BRL
same,RRT 1.96,[10],BRL
same,RRT 2.01,[10],BRL
same,RRT 2.26,[10],BRL
same,Total,[10],0.06
